This data set can be described thus: Clinical trial: plasma concentration and AUC of cinnamic acid derivatives after ingestion of BGP alone or BGP plus herbal extract mixture. The data set is classed as in vivo. The note with it: humans, BGP and herbal extracts co-administered; for fold increase of AUC versus BGP administered alone: 0–24 h; for AUC: plasma 0–24 h, after enzymatic deconjugation, mean ± SD, n = 6. How it is done:
Six volunteers (three males and three females) completely understood the study protocol and consented to participate in the research. The following exclusion criteria were used for shortlisting participants: past or present medical history (asthma, significant allergies, heart, liver, kidney, and urinary tract disease); prescribed medication; pregnancy; smoking (>20 cigarettes/day); alcohol consumption (>500 mL/day of beer); use of dietary supplements and healthy foods; and participation in other clinical trials. The participants were instructed to refrain from consuming propolis and propolis‐containing foods and beverages during the study period and 1 week prior to the start of the study. After a 12‐h fast, the participants were given a test food comprising the encapsulated BGP powder or a mixture of the BGP powder and herbal extracts in two experimental periods separated by 1 week. […] The collected samples were centrifuged at 1500 g for 3 min at 23 ± 2°C to separate the plasma, which was subsequently preserved at −80°C until further sample preparation.
Briefly, 50 μL of plasma was treated with a sulfatase/β‐glucuronidase solution (sulfatase 15 units/sample) in 100 mM sodium acetate and 5 mM ascorbate at 37°C for 1 h. Following the incubation, 850 μL of methanol was added to the samples to stop the deconjugation reaction, after which centrifugation was performed at 2000 g for 10 min at 23 ± 2°C. The supernatant was evaporated under nitrogen gas and then reconstituted in a fixed volume of methanol. The samples were filtered through a 0.22 μm PTFE membrane and then analyzed by LC–MS/MS.
Briefly, 5 μL of the sample was injected into a reversed‐phase column (Acquity UPLC BEH C18, 2.1 × 100 mm, ID. 1.7 μm; Waters, Milford, MA, USA) held at 30°C. The elution was performed using solvent A (0.1% formic acid) and solvent B (acetonitrile) at a flow rate of 0.3 mL/min. The gradient profiles were as follows: 5% B (0–2 min), 5–95% B (2–22 min), 95% B (22–25 min), and 5% B (25–30 min). Tandem mass spectrometry (MS/MS) was conducted using an ion trap mass spectrometer with a heated electrospray ion source (HESI) in both positive and negative ionization modes (scan range m/z 70–1000). […] External standard curves for cinnamic acid derivatives were generated using eight concentrations of authentic standard solutions (1, 5, 10, 50, 100, 250, 500, and 1000 ng/mL).
Quantification of cinnamic acid derivatives in the plasma was performed using the Trace Finder software version 4.1 (Thermo Scientific). The plasma concentration versus time data for the analytes obtained from each human and rat were entered into a Microsoft Excel spreadsheet. The area under the plasma concentration–time curve (AUC) was calculated using the linear trapezoidal rule, extending to the last sampling point.

Molecules are shown by their SMILES. Like-named read-outs stand apart in the source and are kept apart here.

Consider `CC(C)=CCc1cc(/C=C/C(=O)O)cc(CC=C(C)C)c1O` [artepillin C], for which the “fold increase of AUC versus BGP administered alone” value is reported as 1.7 fold and the AUC (as a rule, concentration integrated over time) is 312.9 ± 91.4 ng·h/mL.

For the compound `CC(C)=CCc1cc(/C=C/C(=O)O)ccc1O` [drupanin], the “fold increase of AUC versus BGP administered alone” value was 1.5 fold. Also, under “both sexes, human, oral, read-out: AUC”, the AUC was 446 ± 144 ng·h/mL.
